{"source": "patent US20180169002A1", "about": "“Skin Rejuvenation and Defense Systems and Methods” (Maple Mountain Group, Inc., priority 2015, published 2018)", "origin": "cited, not measured here", "conditions": "compared with glycerin", "data": [{"smiles": "NC(=O)NCCO", "note": "[Hydroxyethyl Urea, Hydroxyethyl urea]", "values": [{"measurement": "moisturization efficacy", "value": "comparable to the leading benchmark"}]}]}
